Data: ChEMBL document CHEMBL4265876, “Natural Products with Heteroatom-Rich Ring Systems” (J Nat Prod, 2017)
pIC50: −log10 of the molar value. Values after ≈ are worked out from the molar mass of the structure shown.

Tests used:
[1] = tested on: Aspergillus niger; experiment: Antifungal activity against Aspergillus niger assessed as inhibition zone at 100 ug/hole; type: functional
[2] = tested on: Cercospora sojina; experiment: Antifungal activity against Cercospora sojina assessed as inhibition zone at 100 ug/hole; type: functional
[3] = tested on: Fusarium oxysporum; experiment: Antifungal activity against Fusarium oxysporum assessed as inhibition zone at 100 ug/hole; type: functional
[4] = tested on: L1210; experiment: Cytotoxicity against mouse L1210 cells; type: functional, cell-based
[5] = tested on: V79; experiment: Cytotoxicity against chinese hamster V79 cells; type: cell-based; conditions: Cricetulus griseus
[6] = tested on: SF-268; experiment: Cytotoxicity against human SF268 cells assessed as cell killing at 50 uM relative to control; type: functional
[7] = Antioxidant activity of the compound; type: functional
[8] = tested on: Bacillus subtilis; experiment: Antibacterial activity against Bacillus subtilis ATCC 6051 after 24 hrs by serial dilution method; type: functional; conditions: ATCC 6051, 24 h
[9] = tested on: Escherichia coli; experiment: Antibacterial activity against Escherichia coli ATCC 10536 after 24 hrs by serial dilution method; type: functional; conditions: ATCC 10536, 24 h
[10] = tested on: Pseudomonas aeruginosa; experiment: Antibacterial activity against Pseudomonas aeruginosa ATCC 10145 after 24 hrs by serial dilution method; type: functional; conditions: ATCC 10145, 24 h
[11] = tested on: Staphylococcus aureus; experiment: Antibacterial activity against Staphylococcus aureus ATCC 6538 after 24 hrs by serial dilution method; type: functional; conditions: ATCC 6538, 24 h
[12] = tested on: Micrococcus luteus; experiment: Antibacterial activity against Micrococcus luteus ATCC 9341 after 24 hrs by serial dilution method; type: functional; conditions: ATCC 9341, 24 h
[13] = tested on: Ruegeria atlantica; experiment: […] activity against Ruegeria atlantica assessed as inhibition zone at 50 ug/disk; type: functional; conditions: read-out: IZ
[14] = Inhibition of protein kinase A (unknown origin); design: species or system Homo sapiens
[15] = tested on: Staphylococcus aureus; experiment: Antibacterial activity against Staphylococcus aureus assessed as inhibition zone at 50 ug/disk; type: functional; conditions: read-out: IZ
[16] = tested on: Saccharomyces cerevisiae; experiment: Antifungal activity against Saccharomyces cerevisiae assessed as inhibition zone at 50 ug/disk; type: functional; conditions: read-out: IZ
[17] = tested on: Mucor hiemalis; experiment: Antifungal activity against Mucor hiemalis assessed as inhibition zone at 50 ug/disk; type: functional; conditions: read-out: IZ
[18] = tested on: Escherichia coli; experiment: Antibacterial activity against Escherichia coli assessed as inhibition zone at 50 ug/disk; type: functional; conditions: read-out: IZ
[19] = tested on: T-cell; experiment: Inhibition of ConA-induced cell proliferation of BALB/c mouse T-lymphocytes assessed as reduction in [3H]thymidine incorporation incubated for 48 hrs by beta scintillation counting method; type: functional
[20] = tested on: L1210; experiment: Cytotoxicity against mouse L1210 cells assessed as decrease in cell viability at 5 ug; type: functional
[21] = tested on: Micrococcus luteus; experiment: Antibacterial activity against Micrococcus luteus assessed as inhibition zone at 20 ug; type: functional; conditions: read-out: IZ
[22] = tested on: L5178Y; experiment: Cytotoxicity against mouse L5178Y cells by MTT assay; type: functional, cell-based
[23] = molecular target: Sodium-dependent noradrenaline transporter (Homo sapiens) (UniProt P23975); experiment: Inhibition of norepinephrine transporter (unknown origin) at 10 uM
[24] = molecular target: Sodium-dependent serotonin transporter (Homo sapiens) (UniProt P31645); experiment: Inhibition of serotonin transporter (unknown origin) at 10 uM
[25] = molecular target: Mu-type opioid receptor (Homo sapiens) (UniProt P35372); experiment: Inhibition of mu opioid receptor (unknown origin) at 10 uM
[26] = molecular target: Sodium-dependent dopamine transporter (Homo sapiens) (UniProt Q01959); experiment: Inhibition of dopamine transporter (unknown origin) at 10 uM
[27] = tested on: HCT-15; experiment: Cytotoxicity against human HCT15 cells; type: functional; conditions: read-out: ED50 (the source's name)
[28] = tested on: SK-MEL-2; experiment: Cytotoxicity against human SK-MEL-2 cells; type: functional; conditions: read-out: ED50 (the source's name)
[29] = tested on: A549; experiment: Cytotoxicity against human A549 cells; type: functional; conditions: read-out: ED50 (the source's name)
[30] = tested on: SK-OV-3; experiment: Cytotoxicity against human SKOV3 cells; type: functional; conditions: read-out: ED50 (the source's name)
[31] = tested on: XF498; experiment: Cytotoxicity against human XF498 cells; type: functional; conditions: read-out: ED50 (the source's name)
[32] = tested on: Pyricularia oryzae; experiment: Antimicrobial activity against Pyricularia orizae; type: functional

Sodium-dependent noradrenaline transporter (Homo sapiens), sequence (P23975 whole entry): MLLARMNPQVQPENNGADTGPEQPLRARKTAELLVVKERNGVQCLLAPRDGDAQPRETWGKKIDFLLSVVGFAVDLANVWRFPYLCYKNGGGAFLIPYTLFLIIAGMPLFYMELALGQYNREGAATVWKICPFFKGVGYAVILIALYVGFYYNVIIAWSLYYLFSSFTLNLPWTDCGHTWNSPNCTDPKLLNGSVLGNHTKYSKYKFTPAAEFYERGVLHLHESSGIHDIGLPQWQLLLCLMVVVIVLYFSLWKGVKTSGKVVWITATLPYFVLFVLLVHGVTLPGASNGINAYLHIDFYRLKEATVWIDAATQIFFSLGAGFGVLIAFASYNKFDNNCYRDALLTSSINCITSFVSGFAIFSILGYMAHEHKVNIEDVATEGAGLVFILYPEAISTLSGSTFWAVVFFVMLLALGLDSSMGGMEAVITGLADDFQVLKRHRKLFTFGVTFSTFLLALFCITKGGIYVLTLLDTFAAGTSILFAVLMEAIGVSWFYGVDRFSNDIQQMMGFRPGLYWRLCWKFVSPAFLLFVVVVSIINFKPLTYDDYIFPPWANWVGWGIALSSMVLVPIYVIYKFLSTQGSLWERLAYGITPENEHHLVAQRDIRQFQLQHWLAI
Sodium-dependent serotonin transporter (Homo sapiens), sequence (P31645 whole entry, looked up): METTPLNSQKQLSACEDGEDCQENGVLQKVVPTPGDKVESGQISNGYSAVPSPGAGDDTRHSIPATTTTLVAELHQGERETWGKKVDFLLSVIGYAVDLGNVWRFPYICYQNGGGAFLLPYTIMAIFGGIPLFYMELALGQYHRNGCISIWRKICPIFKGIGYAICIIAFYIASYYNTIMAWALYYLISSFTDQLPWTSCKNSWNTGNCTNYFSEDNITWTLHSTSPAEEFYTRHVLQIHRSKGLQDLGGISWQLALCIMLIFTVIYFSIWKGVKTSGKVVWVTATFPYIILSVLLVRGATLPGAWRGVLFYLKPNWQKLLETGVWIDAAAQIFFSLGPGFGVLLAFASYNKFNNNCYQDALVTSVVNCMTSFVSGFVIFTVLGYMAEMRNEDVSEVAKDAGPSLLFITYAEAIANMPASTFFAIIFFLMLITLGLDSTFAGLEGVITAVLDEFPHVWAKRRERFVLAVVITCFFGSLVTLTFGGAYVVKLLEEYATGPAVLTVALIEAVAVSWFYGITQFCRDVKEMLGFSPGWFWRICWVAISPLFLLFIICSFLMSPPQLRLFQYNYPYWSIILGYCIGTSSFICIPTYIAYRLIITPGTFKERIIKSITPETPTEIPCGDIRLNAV
Sodium-dependent dopamine transporter (Homo sapiens), sequence (Q01959 whole entry): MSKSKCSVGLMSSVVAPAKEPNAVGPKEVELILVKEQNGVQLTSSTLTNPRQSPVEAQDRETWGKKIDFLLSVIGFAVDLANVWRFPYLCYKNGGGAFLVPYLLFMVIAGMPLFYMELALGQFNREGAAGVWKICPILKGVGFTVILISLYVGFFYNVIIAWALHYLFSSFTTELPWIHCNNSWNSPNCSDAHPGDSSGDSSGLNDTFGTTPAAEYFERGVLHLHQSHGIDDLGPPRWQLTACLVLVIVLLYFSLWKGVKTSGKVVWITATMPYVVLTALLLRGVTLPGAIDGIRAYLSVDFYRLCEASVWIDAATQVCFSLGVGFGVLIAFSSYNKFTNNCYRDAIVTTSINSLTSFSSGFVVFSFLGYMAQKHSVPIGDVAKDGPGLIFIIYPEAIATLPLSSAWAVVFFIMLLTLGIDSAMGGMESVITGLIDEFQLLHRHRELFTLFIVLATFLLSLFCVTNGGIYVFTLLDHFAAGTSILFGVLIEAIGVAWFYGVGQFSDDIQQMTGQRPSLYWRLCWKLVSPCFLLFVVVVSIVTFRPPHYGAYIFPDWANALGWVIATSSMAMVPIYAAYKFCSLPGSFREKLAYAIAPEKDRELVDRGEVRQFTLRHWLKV
Mu-type opioid receptor (Homo sapiens), sequence (P35372 whole entry): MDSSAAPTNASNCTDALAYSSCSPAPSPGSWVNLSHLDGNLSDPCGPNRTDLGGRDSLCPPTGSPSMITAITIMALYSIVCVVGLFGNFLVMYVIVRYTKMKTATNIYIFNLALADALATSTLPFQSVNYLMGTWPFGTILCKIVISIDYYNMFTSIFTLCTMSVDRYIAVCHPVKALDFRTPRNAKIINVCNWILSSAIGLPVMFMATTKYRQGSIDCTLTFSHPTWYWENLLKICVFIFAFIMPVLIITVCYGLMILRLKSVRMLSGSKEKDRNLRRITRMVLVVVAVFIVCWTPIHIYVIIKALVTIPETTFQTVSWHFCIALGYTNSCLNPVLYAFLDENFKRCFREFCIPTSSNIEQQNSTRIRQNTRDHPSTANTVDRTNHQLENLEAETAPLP

CC(=O)O[C@H]1CC[C@]23C[C@]24CC[C@]2(C)[C@@H]([C@H](C)CCC5OOC(C)(C)O5)CC[C@@]2(C)[C@@H]4CC[C@H]3C1(C)C (some centres undefined)
inhibition zone (IZ) [1]: 2 mm | inhibition zone (IZ) [2]: 2 mm | inhibition zone (IZ) [3]: 2 mm

COc1cc(CCN(C)C)c2c(c1O)SSC(C)S2 (centres undefined)
pIC50 [4]: 6.15 | pIC50 [5]: 6.85

CC[C@H](C)C1=C(O)[N@+]2([O-])Oc3ccc(-c4c(O)c(O)c(-c5ccc(OC(C)=O)cc5)c(OC(C)=O)c4OC(C)=O)cc3O[C@@]2([C@@H](C)CC)C(=O)N1O
Activity [6]: 96%

CC[C@H](C)C1=C(O)[N@@+]2([O-])Oc3ccc(-c4c(O)c(O)c(-c5ccc(O)cc5)c(OC(C)=O)c4OC(C)=O)cc3O[C@@]2([C@@H](C)CC)C(=O)N1OC
pIC50 [7]: 4.54

Cc1cc(=O)n2nc(CC(=O)c3ccccc3)nc2[nH]1 [ESSRAMYCIN]
MIC [8]: 1 to 8 µg/mL (≈ 3.73 to 29.8 µM) | MIC [9]: 1 to 8 µg/mL (≈ 3.73 to 29.8 µM) | MIC [10]: 1 to 8 µg/mL (≈ 3.73 to 29.8 µM) | MIC [11]: 1 to 8 µg/mL (≈ 3.73 to 29.8 µM) | MIC [12]: 1 to 8 µg/mL (≈ 3.73 to 29.8 µM)

CC[C@H](C)C1=C(O)[N@+]2([O-])Oc3ccc(-c4c(O)c(O)c(-c5ccc(O)cc5)c(OC(C)=O)c4OC(C)=O)cc3O[C@@]2([C@@H](C)CC)C(=O)N1OC
pIC50 [7]: 4.60

COc1c(OC)c2c(c(CCN(C)C)c1SC)SSS2
zone of inhibition at 50 µg/disc [13]: 10.3 to 32.4 mm | IC50 [14]: > 25 µg/mL | pIC50 [5]: 6.72 | zone of inhibition at 50 µg/disc [15]: 10.3 to 32.4 mm | zone of inhibition at 50 µg/disc [16]: 10.3 to 32.4 mm | zone of inhibition at 50 µg/disc [17]: 10.3 to 32.4 mm | zone of inhibition at 50 µg/disc [18]: 10.3 to 32.4 mm

CO[C@H]1C[C@H](O[C@H]2[C@@H](OC)C[C@H](O[C@H]3[C@H](O)C[C@H](O[C@H]4[C@@H](OC)C[C@H](O[C@@H]5[C@@H](C)O[C@@]6(C[C@H]5OC)OCO[C@@H]5C[C@H](O[C@@H](C)[C@@]7(O)CC[C@H]8[C@@H]9CC=C%10C[C@@H](O)CC[C@]%10(C)[C@H]9CC[C@@]87C)O[C@H](C)[C@H]5O6)O[C@@H]4C)O[C@@H]3C)O[C@@H]2C)O[C@H](C)[C@H]1OC(C)=O
pIC50 [19]: 5.71 to 6.54

COc1cc(CCN(C)C)c2sc3c(OC)c(OC)c(SC)c(CCN(C)C)c3ssc2c1O [LISSOCLIBADIN 5]
zone of inhibition at 50 µg/disc [15]: 15.8 mm | zone of inhibition at 50 µg/disc [18]: 11.6 mm

COC1=C[C@@H](C)O[C@@H](O[C@H]2CC[C@@]3(C)C(=CC[C@@H]4[C@@H]3CC[C@@]3(C)[C@H]4CC[C@]3(O)[C@H](C)O[C@H]3C[C@H]4OCO[C@@]5(C[C@@H](OC)[C@H](O[C@H]6C[C@H](OC)[C@H](O[C@H]7C[C@@H](O)[C@H](O[C@H]8C[C@H](OC)[C@H](O[C@H]9C[C@@H](OC)[C@H](O)[C@@H](C)O9)[C@@H](C)O8)[C@@H](C)O7)[C@@H](C)O6)[C@@H](C)O5)O[C@@H]4[C@@H](C)O3)C2)C1=O
pIC50 [19]: 5.71 to 6.54

CN[C@@H]1CSCON2CCc3c([nH]c4ccc(O)c(Br)c34)[C@H]12
Activity [20]: 100% | zone of inhibition at 20 µg/disc [21]: 41 mm

COC1=C[C@@H](C)O[C@@H](O[C@H]2CC[C@@]3(C)C(=CC[C@@H]4[C@@H]3CC[C@@]3(C)[C@H]4CC[C@]3(O)[C@H](C)O[C@H]3C[C@H]4OCO[C@@]5(C[C@@H](OC)[C@H](O[C@H]6C[C@H](OC)[C@H](O[C@H]7C[C@@H](O)[C@H](O[C@H]8C[C@H](OC)[C@H](O[C@H]9C[C@H](O)[C@H](OC(C)=O)[C@@H](C)O9)[C@@H](C)O8)[C@@H](C)O7)[C@@H](C)O6)[C@@H](C)O5)O[C@@H]4[C@@H](C)O3)C2)C1=O
pIC50 [19]: 5.71 to 6.54

Nc1nsc(C(=O)c2ccc(O)cc2)n1
pIC50 [22]: 6.39

N=C(N)NCCCCCNc1noc(Cc2c[nH]c3ccccc23)n1
inhibition [23]: 45% | inhibition [24]: 16% | inhibition [25]: 97% | inhibition [26]: 96%

CO[C@H]1C[C@H](O[C@@H]2[C@@H](C)O[C@@]3(C[C@H]2OC)OCO[C@@H]2C[C@H](O[C@@H](C)[C@@]4(O)CC[C@H]5[C@@H]6CC=C7C[C@@H](O)CC[C@]7(C)[C@H]6CC[C@@]54C)O[C@H](C)[C@H]2O3)O[C@H](C)[C@H]1O[C@H]1C[C@@H](O)[C@H](O[C@H]2C[C@H](OC)[C@H](O[C@H]3C[C@@H](OC)[C@H](O)[C@@H](C)O3)[C@@H](C)O2)[C@@H](C)O1
pIC50 [19]: 5.71 to 6.54

CC(C)CCCCC1=CN=CN2COC(=O)N12
EC50 [27]: 0.6 µg/mL (≈ 2.53 µM) | EC50 [28]: 0.76 µg/mL (≈ 3.2 µM) | EC50 [29]: 0.62 µg/mL (≈ 2.61 µM) | EC50 [30]: 0.36 µg/mL (≈ 1.52 µM) | EC50 [31]: 0.7 µg/mL (≈ 2.95 µM)

C1SCSSCS1
MIC [32]: 50 µg/mL (≈ 294 µM)
